Experiments:
Rattus norvegicus [1] = test: Blockade of unconditioned avoidance response in ip dosed rat; format: functional
Rattus norvegicus [2] = test: Blockade of conditioned avoidance response in ip dosed rat; format: functional
[3] = molecular target: 5-hydroxytryptamine receptor 2A (Rattus norvegicus, UniProt P14842); test: Displacement of [3H]ketanserin from 5HT2A receptor in rat brain; format: tissue-based
Mus musculus [4] = test: Reduction of amphetamine-induced hyperactivity in ip dosed mouse; format: functional
Rattus norvegicus [5] = test: Cataleptic activity in ip dosed rat; format: ADME, organism-based; settings: in vivo
D(2) dopamine receptor = D(2) dopamine receptor (Rattus norvegicus, UniProt P61169); test: Displacement of [3H]spiperone from dopamine D2 receptor in rat brain; format: tissue-based
Mus musculus [6] = test: Antagonism of amphetamine-induced toxicity in ip dosed mouse; format: functional
Rattus norvegicus [7] = species on record: Rattus norvegicus; test: Ratio of ED50 for cataleptic activity in rat to ED50 for conditioned avoidance response in rat; format: functional
Mus musculus [8] = test: Effect on locomotor activity in ip dosed mouse assessed as motor deficit by rota rod test; format: functional
Rattus norvegicus [9] = test: Blockade of secondary conditioned avoidance response in ip dosed rat; format: functional
D(1A) dopamine receptor = D(1A) dopamine receptor (Rattus norvegicus, UniProt P18901); test: Displacement of [3H]SCH-23390 from dopamine D1 receptor in rat brain; format: tissue-based
Chain of D(1A) dopamine receptor (P18901 whole entry): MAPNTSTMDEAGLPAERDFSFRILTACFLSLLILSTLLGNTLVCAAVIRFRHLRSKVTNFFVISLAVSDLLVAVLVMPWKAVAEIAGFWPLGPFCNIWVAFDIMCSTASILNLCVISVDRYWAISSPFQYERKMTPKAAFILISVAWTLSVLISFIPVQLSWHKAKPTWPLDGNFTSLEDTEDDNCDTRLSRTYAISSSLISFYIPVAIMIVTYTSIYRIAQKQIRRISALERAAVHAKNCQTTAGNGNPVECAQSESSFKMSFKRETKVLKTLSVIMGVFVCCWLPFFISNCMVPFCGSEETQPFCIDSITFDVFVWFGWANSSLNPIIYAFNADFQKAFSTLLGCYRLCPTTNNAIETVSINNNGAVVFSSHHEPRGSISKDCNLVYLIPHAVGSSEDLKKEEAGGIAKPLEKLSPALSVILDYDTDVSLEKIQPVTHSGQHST

Chain of D(2) dopamine receptor (P61169 whole entry): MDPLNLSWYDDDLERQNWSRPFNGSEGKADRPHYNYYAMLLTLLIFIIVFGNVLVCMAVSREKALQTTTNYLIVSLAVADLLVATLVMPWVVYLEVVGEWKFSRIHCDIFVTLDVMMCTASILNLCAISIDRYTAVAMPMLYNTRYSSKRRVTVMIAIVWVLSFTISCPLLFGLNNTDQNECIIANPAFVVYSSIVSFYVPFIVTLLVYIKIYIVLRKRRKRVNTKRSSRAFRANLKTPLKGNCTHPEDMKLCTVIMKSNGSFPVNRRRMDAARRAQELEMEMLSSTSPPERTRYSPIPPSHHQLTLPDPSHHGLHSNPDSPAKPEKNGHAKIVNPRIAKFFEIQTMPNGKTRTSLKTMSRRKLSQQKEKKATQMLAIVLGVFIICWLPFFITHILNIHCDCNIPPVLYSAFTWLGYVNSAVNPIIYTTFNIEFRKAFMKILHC
Chain of 5-hydroxytryptamine receptor 2A (P14842 whole entry): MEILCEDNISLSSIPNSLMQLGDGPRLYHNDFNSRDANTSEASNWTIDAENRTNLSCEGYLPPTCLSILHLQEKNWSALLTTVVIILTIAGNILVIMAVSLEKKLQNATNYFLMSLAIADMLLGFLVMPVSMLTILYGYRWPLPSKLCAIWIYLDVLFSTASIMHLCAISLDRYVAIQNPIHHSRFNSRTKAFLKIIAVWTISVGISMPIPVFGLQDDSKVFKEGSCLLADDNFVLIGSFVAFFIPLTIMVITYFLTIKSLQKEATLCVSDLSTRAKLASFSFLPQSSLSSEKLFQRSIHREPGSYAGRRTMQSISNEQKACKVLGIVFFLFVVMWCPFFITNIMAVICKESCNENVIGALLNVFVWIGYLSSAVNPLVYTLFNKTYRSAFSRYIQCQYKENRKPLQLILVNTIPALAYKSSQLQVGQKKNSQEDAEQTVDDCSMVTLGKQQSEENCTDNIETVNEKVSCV

Ki [3] [nM]	Ki (D(2) dopamine receptor) [nM]	Ki (D(1A) dopamine receptor) [nM]	Compound	ED50 (Rattus norvegicus [1]) [mg/kg]	ED50 (Rattus norvegicus [2]) [mg/kg]	ED50 (Mus musculus [4]) [mg/kg]	ED50 (Rattus norvegicus [5]) [mg/kg]	ED50 (Mus musculus [6]) [mg/kg]	Ratio (Rattus norvegicus [7])	ED50 (Mus musculus [8]) [mg/kg]	ED50 (Rattus norvegicus [9]) [mg/kg]
9.35	2250	0.643	O=C(CCCN1CCN2CC3C(CC2C1)c1ccccc1N3CCCC(=O)c1ccc(F)cc1)c1ccc(F)cc1 (stereo not drawn)	5.6	0.07	1.71	0.88	5.75	12.6	4.33	0.01
92.5	93.8		O=C(CCCN1CCN2CC3Nc4ccccc4C3CC2C1)c1ccc(F)cc1 (stereo not drawn)								
24	13.2	425	O=C(CCCN1CCN2Cc3[nH]c4ccccc4c3CC2C1)c1ccc(F)cc1 (stereo not drawn) [BIRIPERONE]	9.8	0.09	0.75	0.86	1	9.5	2.55	0.04
			O=C(CCCN1CCC(O)(c2ccc(Cl)cc2)CC1)c1ccc(F)cc1 [HALOPERIDOL]		0.1						0.04

Compound	Ki [3] [nM]	Ki (D(2) dopamine receptor) [nM]	Ki (D(1A) dopamine receptor) [nM]	ED50 (Rattus norvegicus [1]) [mg/kg]	ED50 (Rattus norvegicus [2]) [mg/kg]	ED50 (Mus musculus [4]) [mg/kg]	ED50 (Rattus norvegicus [5]) [mg/kg]	ED50 (Mus musculus [6]) [mg/kg]	Ratio (Rattus norvegicus [7])	ED50 (Mus musculus [8]) [mg/kg]	ED50 (Rattus norvegicus [9]) [mg/kg]
O=C(CCCN1c2ccccc2C2CC3CNCCN3CC21)c1ccc(F)cc1 (mixture of isomers)	> 100000	> 100000									

Reference: ChEMBL document CHEMBL1137517, “Rational design, synthesis and evaluation of (6aR( *),11bS( *))-1-(4-fluorophenyl)-4-{7-[4-(4-fluorophenyl)-4-oxobutyl]1,2,3,4,6,6a,7,11b,12,12a(RS)-decahydropyrazino[2',1':6,1]pyrido[3,4-b]indol-2-yl}-butan-1-one as a potential neuroleptic agent” (Bioorg Med Chem, 2007)
